These results are taken from PMC10458470 (Molecules, 2023).

Test in all cases: UV-Vis absorption titration (Kb) and fluorescence quenching (KSV […] ^-1)
What all share (format): binding

Assay [1] addresses T1, human serum albumin (HSA) (Homo sapiens, UniProt P02768).
T1 construct: gene ALB
As to conditions: read-out: UV-Vis absorption titration (Kb) and fluorescence quenching (KSV 5.6 × 10^6 M^-1) (converted).

The target in assay [2] is T1, human serum albumin (HSA). As to conditions: read-out: UV-Vis absorption titration (Kb) and fluorescence quenching (KSV 4.6 × 10^6 M^-1) (converted).
For assay [3], the target named is T1, human serum albumin (HSA). As to conditions: read-out: UV-Vis absorption titration (Kb) and fluorescence quenching (KSV 4 × 10^6 M^-1) (converted).

Read-outs that look alike come from different tables or passages of the source.

T1 sequence (P02768 25-609): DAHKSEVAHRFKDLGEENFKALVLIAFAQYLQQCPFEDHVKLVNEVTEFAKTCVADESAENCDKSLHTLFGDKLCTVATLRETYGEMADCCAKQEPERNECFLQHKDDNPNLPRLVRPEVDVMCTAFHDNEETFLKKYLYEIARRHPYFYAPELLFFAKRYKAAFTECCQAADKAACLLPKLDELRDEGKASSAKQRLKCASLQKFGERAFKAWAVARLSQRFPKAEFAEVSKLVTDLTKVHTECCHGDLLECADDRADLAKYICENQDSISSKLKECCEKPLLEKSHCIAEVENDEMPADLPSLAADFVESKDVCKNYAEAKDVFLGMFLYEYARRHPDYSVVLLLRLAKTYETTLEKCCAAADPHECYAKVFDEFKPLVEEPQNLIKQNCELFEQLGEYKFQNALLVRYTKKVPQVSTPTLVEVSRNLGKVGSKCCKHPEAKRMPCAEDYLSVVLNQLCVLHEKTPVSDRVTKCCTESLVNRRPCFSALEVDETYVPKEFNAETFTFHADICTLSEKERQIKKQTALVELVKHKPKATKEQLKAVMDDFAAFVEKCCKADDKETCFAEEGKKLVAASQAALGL

On to [Cu(NTZ)2Cl2] [NTZ-Cu(II)], for which the Kd in assay [1] is 5.35 µM.
As to [Ni(NTZ)2Cl2] [NTZ-Ni(II)], in assay [2], the Kd is 20.9 µM.
As to [Zn(NTZ)2Cl2] [NTZ-Zn(II)], the Kd in assay [3] is 13.4 µM.
